Measurements taken from ChEMBL document CHEMBL1201862, “PubChem BioAssay data set” (2004).
Active and inactive are the calls of the source.

Experiments:
[1] = target: ELAV-like protein 1 (Homo sapiens, UniProt Q15717); test: Identify HuR specific inhibitors.; format: functional
[2] = target: T1, Hexokinase HKDC1 (Homo sapiens, UniProt Q2TB90); test: inhibition of HKDC1 glucose phosphorylation – biochemical, W721R variant, dose response (AID 504729); format: functional
T1 sequence (Q2TB90 whole entry): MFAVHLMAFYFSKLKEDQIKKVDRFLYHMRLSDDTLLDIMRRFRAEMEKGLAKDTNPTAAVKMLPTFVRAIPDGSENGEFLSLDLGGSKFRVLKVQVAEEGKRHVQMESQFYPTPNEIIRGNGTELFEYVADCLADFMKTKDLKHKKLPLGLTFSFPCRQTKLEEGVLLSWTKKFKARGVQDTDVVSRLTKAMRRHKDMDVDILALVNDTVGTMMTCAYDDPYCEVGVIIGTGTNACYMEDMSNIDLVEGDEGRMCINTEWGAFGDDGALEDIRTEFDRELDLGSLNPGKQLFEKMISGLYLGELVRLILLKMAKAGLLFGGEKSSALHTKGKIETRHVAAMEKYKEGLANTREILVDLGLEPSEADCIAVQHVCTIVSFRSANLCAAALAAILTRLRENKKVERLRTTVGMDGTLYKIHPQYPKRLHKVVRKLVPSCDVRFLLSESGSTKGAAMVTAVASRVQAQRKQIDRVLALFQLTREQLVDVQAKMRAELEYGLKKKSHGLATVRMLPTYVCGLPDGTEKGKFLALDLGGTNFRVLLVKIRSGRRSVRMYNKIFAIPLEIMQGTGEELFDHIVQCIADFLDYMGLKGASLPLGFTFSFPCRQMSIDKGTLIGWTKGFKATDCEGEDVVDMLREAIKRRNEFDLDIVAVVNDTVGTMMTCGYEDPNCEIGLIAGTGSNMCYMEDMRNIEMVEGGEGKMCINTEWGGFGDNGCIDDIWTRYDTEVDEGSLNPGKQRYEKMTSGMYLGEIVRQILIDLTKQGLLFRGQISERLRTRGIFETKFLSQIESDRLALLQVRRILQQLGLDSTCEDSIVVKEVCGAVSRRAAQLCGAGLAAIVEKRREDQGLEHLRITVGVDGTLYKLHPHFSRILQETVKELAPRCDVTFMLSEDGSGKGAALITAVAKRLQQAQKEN

[3] = target: Oxysterols receptor LXR-beta (Homo sapiens, UniProt P55055); test: LXR agonists, Gal4 luciferase reporter, dose response, counter-screen for ssDAF-12 agonist project, cell-based, luminescence, HEK293, S. stercoralis campaign (AID 720737); format: functional; conditions: read-out: IC50 (the source's name)
[4] = Luminescence-based cell-based high throughput dose response assay to identify activators of the DAF-12 from the parasite S. stercoralis (ssDAF-12).; format: functional
[5] = target: E3 ubiquitin-protein ligase UHRF1 (Homo sapiens, UniProt Q96T88); test: Counterscreen for inhibitors of 5-meCpG-binding domain protein 2 (MBD2): TRFRET-based biochemical high throughput dose response assay to identify inhibitors of binding of ubiquitin-like with PHD and ring finger domains 1 (UHRF1) to methylated oligonucleotide.
[6] = target: Phospholipase D2 (Homo sapiens, UniProt O14939); test: PLD2 Cellular Concentration Response Study.; format: functional
[7] = target: T2, Phospholipase D1 (Homo sapiens, UniProt Q13393); test: PLD1 Cellular Concentration Response Study.; format: functional
T2 sequence (Q13393 whole entry): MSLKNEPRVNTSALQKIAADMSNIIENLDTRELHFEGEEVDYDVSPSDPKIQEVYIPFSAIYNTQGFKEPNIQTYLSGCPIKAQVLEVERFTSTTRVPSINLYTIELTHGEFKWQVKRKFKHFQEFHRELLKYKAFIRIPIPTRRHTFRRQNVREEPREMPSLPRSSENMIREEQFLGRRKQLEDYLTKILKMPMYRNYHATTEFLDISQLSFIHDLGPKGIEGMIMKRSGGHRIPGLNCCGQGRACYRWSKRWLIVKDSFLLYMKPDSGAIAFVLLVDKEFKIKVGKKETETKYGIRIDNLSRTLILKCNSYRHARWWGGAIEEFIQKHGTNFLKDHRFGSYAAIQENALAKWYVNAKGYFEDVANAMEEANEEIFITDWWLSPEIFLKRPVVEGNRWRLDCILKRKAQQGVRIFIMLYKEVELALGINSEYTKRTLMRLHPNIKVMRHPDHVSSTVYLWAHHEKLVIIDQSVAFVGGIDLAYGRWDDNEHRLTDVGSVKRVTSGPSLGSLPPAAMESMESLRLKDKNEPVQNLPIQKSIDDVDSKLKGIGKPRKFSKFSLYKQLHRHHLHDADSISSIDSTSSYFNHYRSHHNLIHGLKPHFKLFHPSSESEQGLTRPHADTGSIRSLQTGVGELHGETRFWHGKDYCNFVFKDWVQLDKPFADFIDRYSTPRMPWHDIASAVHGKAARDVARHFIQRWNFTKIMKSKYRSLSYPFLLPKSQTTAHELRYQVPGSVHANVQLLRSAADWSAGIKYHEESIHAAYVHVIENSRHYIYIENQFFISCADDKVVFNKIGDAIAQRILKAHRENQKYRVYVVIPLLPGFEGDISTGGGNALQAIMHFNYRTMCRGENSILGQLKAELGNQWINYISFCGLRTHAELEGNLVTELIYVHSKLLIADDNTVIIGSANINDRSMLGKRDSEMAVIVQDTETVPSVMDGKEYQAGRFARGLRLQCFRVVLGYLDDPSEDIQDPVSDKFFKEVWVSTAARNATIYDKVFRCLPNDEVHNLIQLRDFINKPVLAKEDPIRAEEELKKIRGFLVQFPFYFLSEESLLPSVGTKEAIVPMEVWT

[8] = target: G-protein coupled receptor 183 (Homo sapiens, UniProt P32249); test: SAR confirmation of small molecule antagonists of the EBI2 receptor via a luminescent beta-arrestin assa.; format: functional
[9] = cells; conditions: HEK293
[10] = cytotoxicity toward Colo320 cells – cell-based, CellTiter-Glo luminescence, IC50, dose response (AID 1117334); format: functional; conditions: COLO 320
[11] = rise of 2N DNA cells, HeLa – IC50, dose response (AID 1117349); format: functional, cell-based
[12] = HCT116 cell viability decrease, GSK3B pretreatment – CellTiter-Glo, IC50, dose response (AID 1117339); format: functional; conditions: HCT-116
[13] = cytotoxicity toward HCT116 cells – cell-based, CellTiter-Glo luminescence, IC50, dose response (AID 1117332); format: functional; conditions: HCT-116
[14] = CellTiter-Glo luminescence survival assay, SW480 colon tumor line, concentration-response curve, half-maximal inhibitory concentration (AID 1117338); format: functional
[15] = RKO cell viability reduction, dose response, CellTiter-Glo luminescence (AID 1117322); format: functional
[16] = Reduced DLD-1 viability, concentration-response, CellTiter-Glo luminescence (AID 1117352); format: functional
[17] = SNU-C1 cell viability reduction, dose response, CellTiter-Glo luminescence (AID 1117323); format: functional, cell-based
[18] = rise of 4N DNA cells, HeLa – IC50, dose response (AID 1117351); format: functional, cell-based

Chain of E3 ubiquitin-protein ligase UHRF1 (Q96T88 whole entry, the tested form may be a part): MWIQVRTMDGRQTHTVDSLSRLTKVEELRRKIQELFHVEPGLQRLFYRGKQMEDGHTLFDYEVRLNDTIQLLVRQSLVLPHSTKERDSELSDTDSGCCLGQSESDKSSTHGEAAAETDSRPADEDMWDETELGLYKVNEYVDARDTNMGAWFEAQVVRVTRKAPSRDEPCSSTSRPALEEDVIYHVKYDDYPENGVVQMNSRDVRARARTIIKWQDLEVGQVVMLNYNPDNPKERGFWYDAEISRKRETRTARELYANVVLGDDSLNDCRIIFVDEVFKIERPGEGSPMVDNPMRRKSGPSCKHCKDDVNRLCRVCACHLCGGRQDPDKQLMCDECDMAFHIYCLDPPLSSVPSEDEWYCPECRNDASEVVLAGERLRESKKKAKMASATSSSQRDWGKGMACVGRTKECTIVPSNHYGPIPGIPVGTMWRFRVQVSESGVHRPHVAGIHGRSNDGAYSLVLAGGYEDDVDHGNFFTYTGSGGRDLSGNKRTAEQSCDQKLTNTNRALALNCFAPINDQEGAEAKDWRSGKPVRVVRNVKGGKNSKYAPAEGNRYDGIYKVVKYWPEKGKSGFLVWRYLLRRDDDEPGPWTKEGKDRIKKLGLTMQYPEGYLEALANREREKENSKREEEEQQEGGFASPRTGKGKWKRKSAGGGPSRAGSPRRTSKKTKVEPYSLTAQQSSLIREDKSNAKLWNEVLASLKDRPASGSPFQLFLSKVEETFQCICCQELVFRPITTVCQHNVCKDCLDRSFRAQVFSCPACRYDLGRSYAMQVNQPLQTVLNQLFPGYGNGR
Chain of Phospholipase D2 (O14939 whole entry): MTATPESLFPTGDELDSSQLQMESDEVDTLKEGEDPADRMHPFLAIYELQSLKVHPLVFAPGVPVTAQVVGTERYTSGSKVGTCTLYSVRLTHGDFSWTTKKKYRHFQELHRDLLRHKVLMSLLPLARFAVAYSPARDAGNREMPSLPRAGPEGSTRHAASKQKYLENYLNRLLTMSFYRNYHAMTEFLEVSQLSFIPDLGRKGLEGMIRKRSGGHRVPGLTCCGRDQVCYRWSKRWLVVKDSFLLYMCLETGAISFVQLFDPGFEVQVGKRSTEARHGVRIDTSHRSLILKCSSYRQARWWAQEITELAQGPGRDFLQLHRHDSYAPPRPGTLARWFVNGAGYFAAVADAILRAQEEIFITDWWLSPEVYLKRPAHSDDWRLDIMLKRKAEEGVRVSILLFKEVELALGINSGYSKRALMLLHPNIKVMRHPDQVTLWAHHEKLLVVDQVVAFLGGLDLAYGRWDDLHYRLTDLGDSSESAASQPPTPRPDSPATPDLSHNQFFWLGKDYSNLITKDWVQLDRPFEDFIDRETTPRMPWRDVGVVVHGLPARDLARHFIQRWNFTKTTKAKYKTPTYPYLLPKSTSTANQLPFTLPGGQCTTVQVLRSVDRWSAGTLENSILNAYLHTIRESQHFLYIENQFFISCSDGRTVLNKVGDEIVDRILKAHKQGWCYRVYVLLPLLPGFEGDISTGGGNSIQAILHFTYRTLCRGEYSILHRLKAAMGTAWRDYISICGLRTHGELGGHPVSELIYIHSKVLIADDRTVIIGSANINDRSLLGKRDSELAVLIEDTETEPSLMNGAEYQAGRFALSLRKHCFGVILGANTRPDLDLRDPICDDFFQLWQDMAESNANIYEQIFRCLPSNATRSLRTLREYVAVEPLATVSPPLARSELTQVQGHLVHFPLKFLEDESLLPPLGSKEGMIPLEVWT
Chain of Oxysterols receptor LXR-beta (P55055 whole entry, the tested form may be a part): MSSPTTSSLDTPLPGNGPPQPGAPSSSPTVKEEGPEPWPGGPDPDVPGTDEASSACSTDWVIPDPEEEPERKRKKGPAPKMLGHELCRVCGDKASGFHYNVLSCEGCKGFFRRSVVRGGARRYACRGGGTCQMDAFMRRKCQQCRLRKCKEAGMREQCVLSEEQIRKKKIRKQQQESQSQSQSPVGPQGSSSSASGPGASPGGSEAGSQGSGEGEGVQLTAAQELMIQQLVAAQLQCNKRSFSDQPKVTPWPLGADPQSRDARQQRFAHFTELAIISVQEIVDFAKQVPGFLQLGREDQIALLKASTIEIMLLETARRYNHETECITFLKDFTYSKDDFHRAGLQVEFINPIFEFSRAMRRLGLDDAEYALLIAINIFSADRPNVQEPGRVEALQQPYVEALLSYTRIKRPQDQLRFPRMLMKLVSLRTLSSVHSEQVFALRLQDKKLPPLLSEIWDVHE
Chain of G-protein coupled receptor 183 (P32249 whole entry): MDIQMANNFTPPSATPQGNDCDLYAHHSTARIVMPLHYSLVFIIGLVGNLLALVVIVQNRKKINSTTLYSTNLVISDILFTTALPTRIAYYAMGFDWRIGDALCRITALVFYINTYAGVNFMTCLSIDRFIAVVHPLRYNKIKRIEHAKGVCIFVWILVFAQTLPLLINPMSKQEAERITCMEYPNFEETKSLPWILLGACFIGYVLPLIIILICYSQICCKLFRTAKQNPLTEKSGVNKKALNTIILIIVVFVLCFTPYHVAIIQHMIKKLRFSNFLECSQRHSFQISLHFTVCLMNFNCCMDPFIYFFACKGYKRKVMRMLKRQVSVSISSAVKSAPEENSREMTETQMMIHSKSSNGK
Chain of ELAV-like protein 1 (Q15717 whole entry): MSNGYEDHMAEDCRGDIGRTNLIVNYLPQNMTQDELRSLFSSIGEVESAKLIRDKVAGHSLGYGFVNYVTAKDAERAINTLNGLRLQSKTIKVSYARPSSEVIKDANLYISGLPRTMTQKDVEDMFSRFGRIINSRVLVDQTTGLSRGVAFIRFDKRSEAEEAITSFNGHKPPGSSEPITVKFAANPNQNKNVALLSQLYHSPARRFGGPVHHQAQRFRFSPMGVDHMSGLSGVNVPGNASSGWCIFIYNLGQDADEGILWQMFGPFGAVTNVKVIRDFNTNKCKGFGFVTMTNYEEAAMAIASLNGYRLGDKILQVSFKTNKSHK

In the case of `COCC(=O)OC1CCn2c1nc1c2C(=O)C(C)=C(NC(C)=O)C1=O` (stereo not drawn), the IC50 [1] is reported as 17400 nM (inactive) and the IC50 [2] is reported as 2180 nM (active).

For `CCc1ccc(-c2csc3ncn(CC)c(=O)c23)cc1`, the EC50 [3] was > 67600 nM (inactive) and the IC50 [4] was > 67600 nM (inactive).

For `CC(=O)Nc1sc2c(c1-c1nc3ccccc3s1)CCCNC2`, the IC50 [5] was 15300 nM (inactive).

For `O=C(NCCN1CCC2(CC1)C(=O)NCN2C(=O)C1CC1)c1ccc2ccccc2c1`, the IC50 [6] was 440 nM (active) and the IC50 [7] was 3100 nM (active).

With `O=C(/C=C/c1ccc(F)cc1)N1CCN(S(=O)(=O)c2ccc(F)cc2)CC1` the IC50 [8] was 18.5 nM (active).

In the case of `COc1ccccc1OCCn1c(SC)nc2ccccc21`, the AC50 [9] is reported as 29100 nM (active).

For `O=C1C(I)=CC(=C(c2cc(I)c(O)c(I)c2)c2ccccc2C(=O)O)C=C1I` [IODOPHTHALEIN SODIUM], the IC50 [10] was 312 nM (active), the IC50 [11] was > 10000 nM (inactive) and the IC50 [12] was 54 nM (active). For the same compound, the IC50 [13] was 384 nM (active), the IC50 [14] was 112 nM (active) and the IC50 [15] was 37.3 nM (active). The IC50 [16] was 13.2 nM (active), the IC50 [17] was 3760 nM (active) and the IC50 [18] was > 10000 nM (inactive).
